7 compounds from PMC10463376, “Design, synthesis, in vitro anticancer, molecular docking and SAR studies of new series of pyrrolo[2,3-d]pyrimidine derivatives” (BMC Chemistry, 2023) can be followed below.

Entries after “also recorded” stand apart in the source; their conditions may differ.

What all share (assay type): cell-based, human
Test [1] concerns DR4. Kind of test: RT-qPCR DR4 mRNA in Paca2. The settings on record: 17 vs both Dox. and negative control. How it is done:
(§1) All of the extractions were conducted on ice with ice-cold reagents. Total RNA from the different cell lines was isolated using Trizol (Invitrogen; Life Technologies, USA) according to the method of Sthoeger et al.. The 260:280 ratios were measured to determine RNA quality after the isolation method was completed according to the manufacturer’s instructions. A high-capacity cDNA reverse transcription kit was used to produce complementary DNA (cDNA) (Applied Biosystems, USA). […] The relative gene expression method (i.e., ΔΔCT) was used to analyze the real-time PCR data, as explained in Applied Biosystem User Bulletin No. 2. Each sample and gene were normalized using the β-actin gene.
In general terms: Quantitative PCR measures a nucleic acid by following its amplification.

For test [2], the system named is BAX. Kind of test: RT-qPCR BAX mRNA in Paca2. The settings on record: 17 vs both Dox. and negative control. How it is done:
as §1

Test [3] relates to Casp-3. Kind of test: RT-qPCR Casp-3 mRNA in Paca2. The settings on record: 17 vs both Dox. and negative control. How it is done: as §1
In a further test the test system is CDK4. Kind of test: RT-qPCR CDK4 mRNA in MCF7. The settings on record: MCF7, vs negative control. How it is done:
as §1

The test system of the next test is Bcl2. Kind of test: ELISA Bcl2 in MCF7 cells. The settings on record: MCF7 cells treated with IC50; untreated control 14.37. The source says:
Elisa assay was used to determine the concentrations of Human caspases-3, -8, Bax, and Bcl2 in PACA2- and A549-treated cells. Also, the concentrations of caspase-8, Bax, and Bcl2 in MCF7-treated cells were detected. The procedures were followed up according to the instructions described in the following kits; Invitrogen human Caspase-3 Elisa Kit, Catalog KHO1091, DRG® human Caspase-8 ELISA Kit, Catalog (EIA-4863), Human Bax ELISA Kit (ab199080) and Human Bcl-2 ELISA Kit (ab119506) respectively. Shortly, the protocol described in the above kits was as followed; at the beginning, all the reagents, samples and standards were prepared. 100 μl of samples or standard were micro pipetted to each well of micro-well strip and kept at room temperature for 2 h. After washing the micro-well strips three times with washing buffer, the prepared antibody (anti-rabbit-IgG-HRP) at a concentration of 100 μl was added to each well at room temperature for 1 h. Then, the micro-well strips were washed again three times. Afterward, the prepared tetramethyl-benzidine (TMB) solution (100 μl) was added to the micro-well strips and kept for 10 min. At last, about 50 μl of stop solution was pipetted to each well to inactivate the enzyme completely. The absorbance of all samples was measured at a wavelength of 460 nm and compared to that of the standard. Curve fitting software was used to plot a standard curve and the concentrations for the unknown samples were measured from the standard curve.
For orientation: In an ELISA, binding on a coated surface is turned into a signal by an enzyme label.

Test [4] has as its system BAX. Kind of test: RT-qPCR BAX mRNA in MCF7. The settings on record: MCF7, vs negative control. How it is done:
as §1

The subject of another test is DR5. Kind of test: RT-qPCR DR5 mRNA in MCF7. The settings on record: MCF7, vs negative control. On the procedure: as §1
For test [5], the system named is DR4. Kind of test: RT-qPCR DR4 mRNA in MCF7. To be noted: MCF7, vs negative control. How it is done: as §1
In test [6] the test system is breast cancer cell line (MCF-7). Kind of test: DNA fragmentation assay, MCF7. The settings on record: MCF7, IC50, 24 h, vs negative control (P < 0.01); order 14a > 18b > positive > 16b > 14b. How it is done: The DNA fragmentation assay in a pancreatic cell line (Paca2), breast cancer cell lines (MCF-7) and lung cell line (A549) was performed in concordance with the premises established by Yawata with some modifications. Briefly, after 24 h of exposure of Paca2, MCF-7 and A549 cancer cell lines to the prepared compounds in different Petri dishes (60 × 15 mm, Greiner), the cells were suspended and homogenized in 1 ml of medium and then centrifuged for 10 min at 900 rpm. The genomic DNA was extracted as shown in Yawata. About 1 × 10^6 cells of each tested cancer cell line were treated with the IC50 values of the tested compounds. All the cells were collected via trypsinization and washed with Dulbecco`s Phosphate Buffered Saline. Then, the cells were treated with the lysis buffer containing 5 mM ethylenediaminetetraacetic acid (EDTA), 10 mM Tris (pH 7.4), 0.5% Triton X-100 and 150 mM NaCl for 35 min on ice. After that, the lysates were vortexed and centrifuged for 20 min at 10.000 xg. The fragmented DNA was extracted from the supernatant with an equal volume of isoamyl alcohol: chloroform: neutral phenol mixture (1:24:25). Finally, the percentage of fragmented DNA was determined by performing gel electrophoresis using 2% agarose gel containing 0.1 μg/ml ethidium bromide.
Pancreatic cancer cell line (Paca2), breast cancer cell line (MCF-7) and lung cancer cell line (A549) were used to determine the percentage of DNA fragmentation after the treatment with IC50 of the tested compounds. The selected cells were suspended in 0.5 ml of lysis buffer containing 1 mM EDTA, 10 mM Tris–HCl (pH 8) and 0.2% triton X-100. Then, the cells were centrifuged at 10.000 rpm for 20 min at 4 °C. After removing the supernatant, the pellets were re-suspended in 0.5 ml of lysis buffer. Then, 0.5 ml of 25% tri-chloroacetic acid (TCA) was added to the pellets (P) and the supernatants (S), and incubated for 24 h at 4 °C. Afterwards, the cells were centrifuged at 4 °C for 25 min at 10,000 rpm and the pellets were suspended in […] of 5% TCA, followed by incubation at 80 °C for 20 min. Finally, […] of Diphenyl Amine (DPA) solution [[…] of sulfuric acid, 150 mg DPA in 10 ml glacial acetic acid, and […] acetaldehyde (16 mg/ml)] was added to each cell sample and kept at room temperature for 24 h. The percentage of fragmented DNA was measured from the absorbance reading at 600 nm wavelength using the following formula:
% Fragmented DNA = [OD(S)/[OD(S) + OD(P)] × 100 (OD: optical density, S: supernatant, P: pellet).

In the next test the test system is MCF7 cells. Kind of test: Flow cytometric cell cycle analysis (PI), MCF7. The settings on record: MCF7, 24 h, IC50 concentration; for cell cycle arrest (phase): vs untreated control; for percentage of cells in the G0/G1 phase: control 11.43%. How it is done:
Herein, the negative control was the untreated MCF7 cells and Doxorubicin was used as a positive control. Firstly, after the treatment time of 24 h, MCF7 cells were centrifuged at 1000 rpm for 5 min at 4 °C. The supernatant was discarded and the cells pellet were washed in phosphate-buffered saline (PBS). Then, the cells pellet were centrifuged at 1000 rpm for another 5 min. Afterward, the cells were collected in a single-cell suspension and maintained in 70% ethanol overnight on ice. Then, cells were washed with 1 ml PBS. At last, 200 µl 1 × propidium iodide (PI) mixture was added to the cells pellet in the dark at room temperature for 30 min. Then, the DNA content was analyzed by subjecting the cells to an Epics XL-MCL flow cytometer (Beckman Coulter, Miami, FL). The distribution of cells at different phases of the cell cycle was determined by Multi-cycle software (Phoenix Flow Systems, San Diego, CA).
(In general: A flow cytometer gives signals particle by particle.)

For test [7], the system named is Casp-3. Kind of test: RT-qPCR Casp-3 mRNA in A549. On the procedure: as §1
Test [8] deals with BAX. Kind of test: RT-qPCR BAX mRNA in A549. The settings on record: A549, vs negative control. On the procedure:
as §1

For the compound `CN1CCN(c2nc(C(Cl)(Cl)Cl)nc3c2c(-c2ccc(Br)cc2)c(Cl)n3-c2ccc(Cl)cc2Cl)CC1` [Compound 17, 5-(4-bromophenyl)-6-chloro-7-(2,4-dichlorophenyl)-4-(4-methylpiperazin-1-yl)-2-(trichloromethyl)-7H-pyrrolo[2,3-d]pyrimidine], the “DR4 mRNA level” value in the test with DR4 [1] is “up-regulated”. Moreover, the “BAX mRNA level” value in the test with BAX [2] is on record as “up-regulated”. Moreover, the “Casp-3 mRNA level” value in the test with Casp-3 [3] is “up-regulated”.
On to `COc1ccc(-c2c(Cl)n(-c3ccc(Cl)cc3Cl)c3ncnc(N4CCOCC4)c23)cc1OC` [Compound 18b, 4-(6-chloro-7-(2,4-dichlorophenyl)-5-(3,4-dimethoxyphenyl)-7H-pyrrolo[2,3-d]pyrimidin-4-yl)morpholine], for which the “CDK4 mRNA level” value in the test on CDK4 is on record as “lowered; also recorded: down-regulated”. For the same compound, in the test with Bcl2, the “Bcl2 level (ELISA)” value worked out at 9.24 pg/mL. The “BAX mRNA level” value with BAX [4] is on record as “up-regulated”. Also, the “DR5 mRNA level” value in the test with DR5 is listed as “increased; also recorded: up-regulated”. Besides, the “DR4 mRNA level” value in the test with DR4 [5] was “increased; also recorded: up-regulated”. The DNA fragmentation rate result in [6] is “increased significantly”.
For the compound `COc1ccc(-c2c(Cl)n(-c3ccc(Cl)cc3Cl)c3ncnc(NN)c23)cc1OC` [Compound 14b, 6-chloro-7-(2,4-dichlorophenyl)-5-(3,4-dimethoxyphenyl)-4-hydrazineyl-7H-pyrrolo[2,3-d]pyrimidine], in the test with MCF7 cells, the “cell cycle arrest (phase)” value is “G1 and S phases; also recorded: G1/S phase”; the “percentage of cells in the G0/G1 phase” value turned out to be 85.98%. In the test on CDK4, the “CDK4 mRNA level” value was “lowered; also recorded: down-regulated”. In the test on Bcl2, the “Bcl2 level (ELISA)” value came out at 8.25 pg/mL. Moreover, in the test on BAX [4], the “BAX mRNA level” value is listed as “up-regulated”. In the test with DR5, the “DR5 mRNA level” value is “increased; also recorded: up-regulated”. Further, the “DR4 mRNA level” value in the test with DR4 [5] is “increased; also recorded: up-regulated”. Moreover, the DNA fragmentation rate entry in [6] is reported as “increased significantly”.
Take `COc1ccc(-c2c(Cl)n(-c3ccc(Cl)cc3Cl)c3ncnc(N4CCN(C)CC4)c23)cc1OC` [Compound 16b, 6-chloro-7-(2,4-dichlorophenyl)-5-(3,4-dimethoxyphenyl)-4-(4-methylpiperazin-1-yl)-7H-pyrrolo[2,3-d]pyrimidine]: in the test with CDK4, the “CDK4 mRNA level” value is listed as “lowered”. The “Bcl2 level (ELISA)” value with Bcl2 worked out at 4.25 pg/mL. Moreover, in the test on BAX [4], the “BAX mRNA level” value was “up-regulated”. Besides, the “DR5 mRNA level” value in the test on DR5 is reported as “increased”. The “DR4 mRNA level” value in the test with DR4 [5] is listed as “increased”. For the same compound, the DNA fragmentation rate entry in test [6] is “increased significantly”.
On to `NNc1ncnc2c1c(-c1ccc(Br)cc1)c(Cl)n2-c1ccc(Cl)cc1Cl` [Compound 14a, 5-(4-bromophenyl)-6-chloro-7-(2,4-dichlorophenyl)-4-hydrazineyl-7H-pyrrolo[2,3-d]pyrimidine], for which, in the test on MCF7 cells, the “cell cycle arrest (phase)” value is “G1 and S phases; also recorded: G1/S phase”; the “percentage of cells in the G0/G1 phase” value was 68.60%. For the same compound, the “CDK4 mRNA level” value with CDK4 is “lowered; also recorded: down-regulated”. Moreover, the “Bcl2 level (ELISA)” value in the test on Bcl2 stood at 2.4 pg/mL. In addition, the “BAX mRNA level” value in the test on BAX [4] is on record as “up-regulated”. Also, in the test on DR5, the “DR5 mRNA level” value is on record as “increased; also recorded: up-regulated”. For the same compound, the “DR4 mRNA level” value with DR4 [5] is reported as “increased; also recorded: up-regulated”. In test [6], the DNA fragmentation rate result is given as “increased significantly”.
In the case of `COc1ccc(-c2c(Cl)n(-c3ccc(Cl)cc3Cl)c3ncnc(Cl)c23)cc1OC` [Compound 4b, 4,6-dichloro-7-(2,4-dichlorophenyl)-5-(3,4-dimethoxyphenyl)-7H-pyrrolo[2,3-d]pyrimidine], the “Casp-3 mRNA level” value in the test with Casp-3 [7] was “up-regulated”. The “BAX mRNA level” value in the test with BAX [8] was “up-regulated”.
For the compound `COc1cccc2c1C(=O)c1c(O)c3c(c(O)c1C2=O)C[C@@](O)(C(=O)CO)C[C@@H]3O[C@H]1C[C@H](N)[C@H](O)[C@H](C)O1` [Dox, Doxorubicin, reference compound], the “Casp-3 mRNA level” value in the test with Casp-3 [7] is given as “up-regulated”; in the test on Casp-3 [3], “no significant difference”. Moreover, in the test on CDK4, the “CDK4 mRNA level” value is “lowered”. Moreover, the “BAX mRNA level” value in the test with BAX [4] was “up-regulated”; in the test on BAX [8] it was “up-regulated”; in the test on BAX [2], “no significant difference”. Also, the “DR4 mRNA level” value in the test on DR4 [1] is reported as “no significant difference”; with DR4 [5] it was “increased”. For the same compound, in the test with DR5, the “DR5 mRNA level” value is “increased”.
